In patent publication US4425356A, “Lankacidin derivatives used in swine husbandry” (Takeda Chemical Industries, Ltd., priority 1980, dated 1984):
Values after ≈ are worked out from the molar mass of the structure shown. Read-outs that look alike come from different tables or passages of the source.

Experiments:
Treponema hyodysenteriae [1] = assay: in vitro antibacterial activity (MIC, agar dilution method), Test Examples 1-3; assay type: cell-based; settings: Brachyspira hyodysenteriae, 48 h, 37° C., 2 days, anaerobic
Experimental: Several agents were tested for in vitro antibacterial activity against Treponema hyodysenteriae, the pathogenic bacteria causing swine dysentery, by the method of testing drug sensitivity of Treponema hyodysenteriae (Kashiwazaki et al. Abstracts of Papers presented at the 82nd Meeting of the Japanese Society of Veterinary Science, page 101, 1976).
(1) Strains: These strains belong to Treponema hyodysenteriae isolated
from the bloody mucous faeces of dysenteric pigs in Japan.
(2) Antimicrobial activity assay: Agar dilution method
(3) Inoculum size: A loopful of bacterial suspension (10^6 CFU/ml)
(4) Cultural conditions: GasPak anaerobic system (BBL), 37° C., 2
Typical agents among compound (I) were tested for in vitro antibacterial activity by the same method as in Test Example 1.
The experimental conditions are the same as in Test Example 1 (Table 1).
Agents of compound (I) were tested for in vitro antibacterial activity by the same method as in Test Example 1.

Treponema hyodysenteriae [2] = assay: efficacy in experimental infection in mice with swine dysentery, Test Example 4; assay type: in vivo; settings: 5 mg/kg/day oral, day 1 to day 4; seven days after infection
Experimental: Lankacidin A, lankacidin C, lankacidin C 8-acetate, lankacidin C 14-propionate, lankacidinol A and lankacidinol were tested for efficacy against swine dysentery in experimental infection in mice with swine dysentery.
The similar experimental infection model of swine dysentery in mice as that described, for example, by Joens et al. in Infection and Immunity, 25, 757-760 (1979), American Journal of Veterinary Research, 41, 1225-1226 (1980) and Veterinary Record, 107, 527-529 (1980) was used. Thus, a field isolate of Treponema hyodysenteriae anaerobically cultivated on the 5% defibrinated horse blood added Trypticase soy agar (BBL) plate was mashed together with the culture medium and diluted two-fold with Trypticase soy broth (BBL). Mice were inoculated intragastrically with this infecting dilution. Each test agent was suspended in 5% gum arabic solution and forcibly administered orally from day 1 to day 4 following infection. Seven days after infection, the cecum was examined for lesions, and the cecum was mashed together with the contents and subjected to Treponema hyodysenteriae counting. Excellent efficacy was produced in each of the drug-administered groups.

[3] = acute toxicity tests with mice; settings: mouse, in vivo
Text: The toxicity of compound (I) in animals is very low.

[4] = test system: Treponema hyodysenteriae 78/A strain; assay: therapeutic administration in pigs showing clinical signs of swine dysentery, Test Examples 8-9; assay type: in vivo; settings: for Condition of feces: Table 9, individual pig
Experimental: This test was conducted under the conditions of so-called therapeutic administration. […] The method of infection was the same as in Test Example 5. […] Simultaneously with showing of the signs, the pigs were provided with a feed containing 50 ppm of lankacidin C. […] After 2 days, the viable count for the pathogen in feces was below the detection limit (10^2 CFU/g).
The condition of feces was rated at one of the following four classes:
.circle. normal; loose; diarrheal; .circleincircle. mucous and bloody
count is below the detection limit (10^2 CFU/g).
The symbol * indicates those days on which the feed containing 50 ppm of
lankacidin C was given.
Lankacidins were tested for therapeutic effects in swine dysentery under therapeutic conditions in the same manner as in Test Example 8. The effects were judged based on the condition of feces.
The condition of feces was rated at one of the following four classes;
The symbol * indicates the days on which the feed containing 50 ppm of th

[5] = test system: Treponema hyodysenteriae 78/A strain; assay: efficacy against swine dysentery under experimental infection conditions in pigs (drug in feed), Test Examples 5-7; assay type: in vivo, Landrace pigs
Experimental: Lankacidin C was tested for efficacy against swine dysentery under experimental infection conditions. Thus, twelve 6-week-old Landrace pigs (4 per group) were used. The test drug was admixed to a concentration of 100 ppm with the domestically formulated starter feed for young pigs without antibiotics. The animals were provided with the ration ad libitum. Infection of the pigs was effected by direct intragastrical administration to the SPF pigs of an inoculum prepared by preliminary anaerobic cultivation of the Treponema hyodysenteriae 78/A strain on a 5% horse blood added agar plate, mashing together with the culture medium and admixing with 5% mucin added phosphate buffer. Colonic contents and mucosa were collected from pigs which developed typical signs of swine dysentery, and diluted two-fold with 5% mucin added phosphate buffer. The dilution was used as the final inoculum, and 100 ml of the dilution was directly injected into the stomach of test pigs at the age of 7 weeks (fasted for 24 hours before infection). The pigs were fed for 21 days following infection.
The data are each the mean value per head for the 21day period from
infection to autopsy. Different alphabetic letters on the same line
indicate that there is a significant difference between the data to which
they are attached (P <0.05).
Lankacidin C was tested at concentrations in feed of 100 ppm and lower by the same method as in Test Example 5, with carbadox, a commonly used anti-swine-dysentery agent, for comparison.
The anti-swine-dysentery effects of 10 ppm each of lankacidin A and lankacidin C 14-propionate were examined by the procedure of Test Example 6.

[6] = strain 78/A, read-out: Minimum Inhibitory Concentration
[7] = strain CD1 (CD-1), read-out: Minimum Inhibitory Concentration
[8] = strain DJ70P1, read-out: Minimum Inhibitory Concentration
[9] = strain MK-2, read-out: Minimum Inhibitory Concentration
[10] = 10 ppm in feed, 21-day test period
[11] = 10 ppm in feed, 21 day period, mean per head

## CC(=O)OC1C=CC(C)=CC(NC(=O)C(C)=O)C2(C)C(=O)OC(CC(O)C=CC(C)=CC1)C(C)C2=O (stereo not drawn) [Lankacidin C 8-acetate, lankacidin C 8-acetate]
Treponema hyodysenteriae [1]; [6]
  MIC: 0.39 µg/mL (≈ 0.778 µM)
Treponema hyodysenteriae [1]; [7]
  MIC: 0.39 µg/mL (≈ 0.778 µM)
Treponema hyodysenteriae [1]; [8]
  MIC: 0.78 µg/mL (≈ 1.56 µM)
Treponema hyodysenteriae [1]; [9]
  MIC: 0.39 µg/mL (≈ 0.778 µM)
Treponema hyodysenteriae [2]
  Number of mice from which the pathogen was detected/number of mice tested: 0/5
  Number of mice with cecal lesions/number of mice tested: 0/5

## CCC(=O)OC1C=CC(C)=CCC(O)C=CC(C)=CC(NC(=O)C(C)=O)C2(C)C(=O)OC(C1)C(C)C2=O (stereo not drawn) [Lankacidin C 14-propionate, lankacidin C 14-propionate]
Treponema hyodysenteriae [1]; [6]
  MIC: 1.56 µg/mL (≈ 3.03 µM)
Treponema hyodysenteriae [1]; [7]
  MIC: 3.13 µg/mL (≈ 6.07 µM)
Treponema hyodysenteriae [1]; [8]
  MIC: 3.13 µg/mL (≈ 6.07 µM)
Treponema hyodysenteriae [1]; [9]
  MIC: 1.56 µg/mL (≈ 3.03 µM)
Treponema hyodysenteriae [2]
  Number of mice from which the pathogen was detected/number of mice tested: 1/5
  Number of mice with cecal lesions/number of mice tested: 0/5
[3]; ip, intraperitoneal, read-out: intraperitoneal LD50
  LD50: > 10000 mg/kg
[3]; oral, read-out: oral LD50
  LD50: > 10000 mg/kg
[4]; 50 ppm in feed
  therapeutic effect in swine dysentery (in words): therapeutically effective
[4]; 50 ppm in feed days 0-6, day 7
  Condition of feces: .circle.
[4]; 50 ppm in feed days 0-6, day 8
  Condition of feces: .circle.
[4]; 50 ppm in feed days 0-6, day 9
  Condition of feces: .circle.
[4]; 50 ppm in feed days 0-6, day 10
  Condition of feces: .circle.
[4]; 50 ppm in feed days 0-6, day 11
  Condition of feces: .circle.
[4]; 50 ppm in feed days 0-6, day 12
  Condition of feces: .circle.
[4]; 50 ppm in feed days 0-6, day 13
  Condition of feces: .circle.
[4]; 50 ppm in feed days 0-6, day 14
  Condition of feces: .circle.
[4]; 50 ppm in feed days 0-6, day 15
  Condition of feces: .circle.
[4]; 50 ppm in feed days 0-6, day 16
  Condition of feces: .circle.
[4]; 50 ppm in feed days 0-6, day 17
  Condition of feces: .circle.
[4]; 50 ppm in feed days 0-6, day 18
  Condition of feces: .circle.
[4]; 50 ppm in feed days 0-6, day 19
  Condition of feces: .circle.
[4]; 50 ppm in feed days 0-6, day 20
  Condition of feces: .circle.
[4]; 50 ppm in feed days 0-6, day 21
  Condition of feces: .circle.
[4]; 50 ppm in feed, day 0 after manifestation of signs
  Condition of feces: .circleincircle.
[4]; 50 ppm in feed, day 1
  Condition of feces: .circle.
[4]; 50 ppm in feed, day 2
  Condition of feces: .circle.
[4]; 50 ppm in feed, day 3
  Condition of feces: .circle.
[4]; 50 ppm in feed, day 4
  Condition of feces: .circle.
[4]; 50 ppm in feed, day 5
  Condition of feces: .circle.
[4]; 50 ppm in feed, day 6
  Condition of feces: .circle.
[5]; 10 ppm in feed
  Number of pigs from which the pathogen was detected, in colonic mucosa: 0
  Number of pigs from which the pathogen was detected, in feces: 0
  Number of pigs showing colonic lesions: 0
[5]; [10]
  Number of days on which diarrhea was observed: 0 days
  Number of days on which mucous bloody stool was observed: 0 days
  Number of pigs showing signs of infection/number of pigs used: 0/4
[5]; [11]
  Body weight gain: 562 grams/day
  Feed conversion: 1.81
  Feed intake: 21.1 kg
[5]; 10 ppm in feed, mean per head
  Body weight at the time of completion of test: 23.1 kg
[5]; pig, in vivo
  effect against swine dysentery (in words): distinctly effective against swine dysentery

## CC(=O)OC1C=CC(C)=CCC(O)C=CC(C)=CC(NC(=O)C(C)O)C2(C)C(=O)OC(C1)C(C)C2=O (stereo not drawn) [Lankacidinol A, lankacidinol A]
Treponema hyodysenteriae [1]; [6]
  MIC: 12.5 µg/mL (≈ 24.8 µM)
Treponema hyodysenteriae [1]; [7]
  MIC: 25 µg/mL (≈ 49.6 µM)
Treponema hyodysenteriae [1]; [8]
  MIC: 25 µg/mL (≈ 49.6 µM)
Treponema hyodysenteriae [1]; [9]
  MIC: 25 µg/mL (≈ 49.6 µM)
Treponema hyodysenteriae [2]
  Number of mice from which the pathogen was detected/number of mice tested: 1/5
  Number of mice with cecal lesions/number of mice tested: 0/5

## CC1=CCC(O)C=CC(C)=CC(NC(=O)C(C)O)C2(C)C(=O)OC(CC(O)C=C1)C(C)C2=O (stereo not drawn) [Lankacidinol, lankacidinol]
Treponema hyodysenteriae [1]; read-out: Minimum Inhibitory Concentration, strain 78/A
  MIC: 12.5 µg/mL (≈ 27.1 µM)
Treponema hyodysenteriae [1]; read-out: Minimum Inhibitory Concentration, strain CD1 (CD-1)
  MIC: 12.5 µg/mL (≈ 27.1 µM)
Treponema hyodysenteriae [1]; read-out: Minimum Inhibitory Concentration, strain DJ70P1
  MIC: 25 µg/mL (≈ 54.2 µM)
Treponema hyodysenteriae [1]; read-out: Minimum Inhibitory Concentration, strain MK-2
  MIC: 25 µg/mL (≈ 54.2 µM)
Treponema hyodysenteriae [2]
  Number of mice from which the pathogen was detected/number of mice tested: 0/5
  Number of mice with cecal lesions/number of mice tested: 0/5
